In brackets after ≈: the same amount, converted by molar mass.
Legend:
Lepomis macrochirus = conditions: acute; duration: 96 hours; mortality
Tagia sp. = conditions: acute; duration: 14 days; mortality
Daphnia magna = conditions: chronic/long-term; duration: 21 days; reproduction
Bibionidae = conditions: chronic/long-term; duration: 28 days
Colinus virginianus = conditions: oral
Canidae = conditions: oral, Dog Other
Apis mellifera = conditions: acute, duration: 48 hours, mortality

For `CC1(c2ccc(Oc3ccccc3)cc2)OC(=O)N(Nc2ccccc2)C1=O` (centres undefined) [Famoxadone], the LD50 (Rattus norvegicus; acute, mortality) was greater than 5000 mg/kg, the NOAEL (Rattus norvegicus; developmental, development) was 11.3 mg/kg-day and the LC50 (Lepomis macrochirus) was 0.013 µg/mL (≈ 0.0347 µM). It also gave an LC50 (Tagia sp.) of 470 mg/kg, an NOEC (Daphnia magna) of 0.0037 mg/L and an NOEC (Bibionidae) of 0.01 mg/L. It also gave an LC50 (Oncorhynchus mykiss; acute, duration: 96 hours, mortality) of 0.011 µg/mL (≈ 0.0294 µM), an NOEC (Oncorhynchus mykiss; chronic/long-term, duration: 90 days, growth) of 0.014 mg/L and an LD50 (Colinus virginianus; acute, mortality) greater than 2250 mg/kg-day. For the same molecule, the NOEC (Colinus virginianus; short-term, diet) was 5620 mg/kg-day, the NOAEL (Canidae; chronic, duration: 1 years, ophthalmoscopic examination) was 1.2 mg/kg-day and the NOAEL (Canidae; subchronic, duration: 90 days, clinical signs) was 10 mg/kg-day. For the same molecule, the LD50 (Apis mellifera; dermal) was greater than 25 µg/piece and the LD50 (Apis mellifera; oral, unspecified) was greater than 63 µg/piece.

Source: EPA's ToxValDB 9.5 (doi:10.2903/j.efsa.2015.4194)
